Measured values: patent US20170354659A1, “COMPOSITIONS CONTAINING DEFINED CAFFEINE AND THEOBROMINE LEVELS WITH ENHANCED COGNITIVE PROPERTIES” (The Hershey Company, priority 2014, published 2017)

Tests used:
[1] = tested on: regions of the brain associated with caffeine cravings; assay: fMRI brain blood flow/connectivity analysis; format: in vivo, human; details: subjects with a caffeine habit, FIG. 1 and 3
Source text: Measurement or detection of changes in the brain can be done using functional MRI (fMRI) and functional brain network analyses as known in the art. The following is an exemplary study using known techniques based upon fMRI scanning of human brains.
These examples represent an intervention study (number of subjects=24) with a randomized controlled, double-blind, placebo-controlled crossover design. The study is designed to ensure completion of all possibilities in the order of delivering the test samples, i.e. each subject is administered each of the possible test beverages in different order. An approximately equal number of men and women should be included and ethnic groups and minorities should also be included. For initial baseline testing, subjects undergo 16 hours of caffeine and chocolate withdrawal for a baseline testing and then participate in four separate brain scanning visits over 5-10 weeks. […] As determined from a medical screening session, any subjects with active neurological dysfunction (such as a major Axis I psychopathology, Alzheimer's disease, Parkinson's disease, prior history of stroke, epilepsy, or serious CNS trauma, ADHD, migraines, hypertension, diabetes, peripheral vascular disease, or taking vasoactive medications, such as antihypertensive medications) are excluded from the study. […]

brain blood flow = details: difference between caffeine and theobromine, 6 participants; cited from earlier work

Row | SMILES | change in blood flow/connectivity by fMRI [1] | brain blood flow difference (brain blood flow)
1 | Cn1c(=O)c2c(ncn2C)n(C)c1=O [Caffeine, caffeine] | typical reduction in blood flow/connectivity | 
2 | Cn1cnc2c1c(=O)[nH]c(=O)n2C [theobromine] |  | 5.03 ml/100 gm tissue/min
